The results in this text go back to BindingDB's records for doi:10.1021/acs.jmedchem.5b01031 (Wayne State University, 2015).

The term EC50 denotes the concentration that produces a half-maximal response.

The target of test [1] is T1, D(2) dopamine receptor (Homo sapiens, UniProt P14416). The test is described as follows: Antagonist activity against human D2 receptor expressed in CHO cells assessed as dopamine EC50 at 200 nM by [35S]GTPgammaS binding assay (Rvb = 225 +/- 45 nM). A general note: GTPγS is a poorly hydrolysed GTP analogue; its binding reports G protein activation.
T1 sequence (P14416 whole entry): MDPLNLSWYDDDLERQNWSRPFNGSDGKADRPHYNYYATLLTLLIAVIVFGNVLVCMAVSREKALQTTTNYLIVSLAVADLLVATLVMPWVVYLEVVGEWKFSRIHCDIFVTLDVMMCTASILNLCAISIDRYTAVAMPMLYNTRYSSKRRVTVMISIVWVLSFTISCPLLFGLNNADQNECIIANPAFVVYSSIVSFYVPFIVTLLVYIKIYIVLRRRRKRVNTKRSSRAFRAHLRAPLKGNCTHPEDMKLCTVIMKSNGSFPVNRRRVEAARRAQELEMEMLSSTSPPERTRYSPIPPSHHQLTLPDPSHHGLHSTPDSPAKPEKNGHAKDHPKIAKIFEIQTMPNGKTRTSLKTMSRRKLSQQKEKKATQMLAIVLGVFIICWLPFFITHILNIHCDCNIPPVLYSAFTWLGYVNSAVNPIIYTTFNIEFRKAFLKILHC
Test [2] concerns the target T1, D(2) dopamine receptor. Description: Antagonist activity against human D2 receptor expressed in CHO cells assessed as dopamine EC50 at 1 uM by [35S]GTPgammaS binding assay (Rvb = 225 +/- 45 nM).

On to `CCCN1CCC[C@@H](c2cccc(O)c2)C1` [Preclamol], for which the “EC50” value stood at 376 nM at D(2) dopamine receptor [1] and 844 nM at D(2) dopamine receptor [2].
